Measured values as given in patent US11549947B2, “Multiplexed detection with isotope-coded reporters” (Massachusetts Institute of Technology, priority 2011, dated 2023).

Legend:
[1] = tested on: liver collagen; details: mouse, in vivo
Method: In vivo imaging. […] FVB/NJ mice (Jackson Labs) were fed with 0.1% w/w DDC (Sigma) rodent chow for three weeks (Research Diets). Fibrotic and age control animals were i.v. infused with VivoTag-680 labeled reagents and visualized by IVIS imaging (Xenogen).
For in situ zymography, fibrotic sections were covered with 90 μl solution of 0.5% w/v low melt agarose (Sigma) in MMP activation buffer (50 mM Tris, 150 NaCl, 5 mM CaCl2, 0.025% Brij 35, pH 7.5) with 10 μl of DQ-gelation (1 mg/ml, Invitrogen) and Hoechst dye at 37° C. Slides were solidified at 4° C. and then incubated at room temperature overnight to promote gelation proteolysis by tissue proteases. To quantify hepatic collagen, tissue from the right and left lobes (250-300 mg) were hydrolyzed in 5 ml of 6 N HCl at 110° C. for 16 hours followed by hydroxyproline quantification as previously described.^43 To quantify CEA, blood was collected from tumor animals into Capiject microtubes (Terumo) to isolate serum before ELISA analysis (Calbiotech). For immunofluorescence analysis, equimolar NW cocktails (5 μM/peptide) were administered in Fibrotic FVB/NJ or tumor bearing Nude mice. After perfusion, livers or tumors were fixed in 4% PFA, froze for sectioning, and stained for F4/80 (AbD Serotec), MMP-9 (R&D Biosystems), CD31 (Santa Cruz Biotechnologies) and/or FITC (Genetex) before analyzed by fluorescence microscopy (Nikon Eclipse Ti). […]

[2] = parameters: species or system FVB/NJ mice; details: mouse, in vivo, iv
Text: Using this assay, increases in sample fluorescence were observed upon proteolytic cleavage of the tethered fluorescent peptides resulting from abrogation of homoquenching between adjacent fluorophores. Initial reaction velocities were extracted for each protease-substrate combination and compiled for comparative analysis (FIG. 10a,b). FIG. 10 illustrates selecting protease-sensitive substrates for NW-chaperoned urinary trafficking. Kinetics of peptide-NW cleavage monitored by fluorimetry are shown in (a). Specific protease-substrate combinations led to rapid activation. […] IVIS in vivo imaging of DDC treated and control animals following intravenous injection of VivoTag-680 labeled Glu-fib peptides, (d) peptide-free NWs, or (e) peptide-conjugated NWs.

[3] = tested on: hepatic fibrosis and resolution in DDC-treated mice; assay: iCORE LC MS/MS analysis of urinary reporters after i.v. NW cocktail, DDC liver fibrosis model; format: in vivo, FVB/NJ mice; details: for individual iCORE peak intensity (DDC over control) relative to pretreatment: DDC-treated mice, NWs administered at 0, 3, 7 and 11 weeks, urine, n=10
Method: (§1) Mice were intravenously infused with 200 μl of PBS containing equimolar NW cocktails (5 μM per peptide) with EDTA-free protease inhibitor tablets (Roche) to isolate MMP activity. Mice were placed over 96-well plates surrounded by cylindrical sleeves for urine collection. To prevent further reporter degradation, voided samples were spiked with EDTA+ complete protease inhibitors (Roche) immediately after collection. To quantify urinary fluorescence, 2 μL of each sample was incubated with magnetic beads (Dynal) coated with α-FITC antibodies (Genetex) in 50 μl binding buffer ([…], 0.01% CHAPS) for 1 hr at 37° C., washed twice with 100 mM NH4OAc, and eluted twice with 15 μl of 5% acetic acid. Samples were neutralized with 2 M Tris and quantified by microplate fluorimetry. For iCORE analysis, samples were irradiated with UV for 30 min. before TCA precipitation (20% final volume) to remove proteins. Soluble fractions were applied to C18 reverse phase columns (Nest Group) and eluted via step gradients of 20% ACN increments in 0.1% formic acid. 60% ACN fractions containing Glu-fib peptides were collected and dried by vacuum centrifuge.
Peptide samples were reconstituted in 5% ACN, 0.1% formic acid and analyzed at MIT or the Taplin MS facility (Harvard Medical School). At MIT, peptides were captured and eluted from a C18 nanoflow HPLC column (75 μm internal diameter Magic C18 AQ, Michrom BioResources, Inc.) at a flow rate of 300 nL/min using water-acetonitrile solvent system with 0.1% formic acid. ESI mass spectrometry was carried out on a QSTAR Elite QTOF mass spectrometer (AB Sciex). At Harvard, samples are reconstituted in 2.5% ACN, 0.1% formic acid. Samples are injected using a Famos autosampler (LC Packings) into an Agilent 1100 HPLC prior to mass analysis on a LTQ-Orbitrap (Thermo Electron). To account for discrepancies in urine volumes and concentration, peak intensities of individual reporters were scaled relative to its respective total iCORE ion current before normalization against control samples to account for technical and age-related variations.
Pearson's correlation coefficients between different protease profiles were calculated with MatLAB. ANOVA analyses were calculated with GraphPad 5.0 (Prism). For ROC analysis, risk score functions were first estimated by logistic regression on individual biomarkers followed by ROC curve analyses of single or biomarker combinations (SigmaPlot).
Thus, to monitor the transitions between fibrosing and resolving disease, NWs were administered at 0, 3, 7, and 11 weeks into DDC-treated and age-matched control animals followed by iCORE MS/MS analysis.
The diagnostic performance of these biomarkers was determined by performing receiver operating characteristic (ROC) analyses for individual as well as biomarker combinations. ROC curves characterize the sensitivity and specificity of a biomarker as a function of the discrimination threshold by returning the area under the curve (AUC) as a performance metric with a baseline AUC of 0.5 representing a random biomarker classifier (dashed line, FIG. 11g,h).

[4] = tested on: LS174T xenograft tumors; assay: iCORE MS/MS analysis of urinary reporters after i.v. NW library, colorectal tumor xenograft model; format: in vivo, athymic nude mice; details: LS 174T tumor vs control, day 10; n=16 (8 ctrl, 8 tumor)
Method: as §1, with “60% ACN fractions containing Glu-fib peptides were collected and dried by vacuum centrifuge.” left out
Peptide samples were reconstituted in 5% ACN, 0.1% formic acid and analyzed at MIT or the Taplin MS facility (Harvard Medical School). […]
Pearson's correlation coefficients between different protease profiles were calculated with MatLAB. ANOVA analyses were calculated with GraphPad 5.0 (Prism). […]

[5] = tested on: LS174T xenograft tumors; assay: Serum CEA by ELISA in tumor animals; format: in vivo, athymic nude mice
Method: To quantify hepatic collagen, tissue from the right and left lobes (250-300 mg) were hydrolyzed in 5 ml of 6 N HCl at 110° C. for 16 hours followed by hydroxyproline quantification as previously described.^43 To quantify CEA, blood was collected from tumor animals into Capiject microtubes (Terumo) to isolate serum before ELISA analysis (Calbiotech).
Here, it was investigated whether panels of synthetic urinary biomarkers could be readily adapted to allow earlier and more accurate detection of cancer compared with single clinical blood biomarkers, e.g., because nanoparticles can be passively targeted to tumors to sample proteases through fenestrated angiogenic tumor vessels.^16. In order to explore this concept, athymic nude mice were used bearing LS174T xenograft tumors, a human colorectal cancer (CRC) cell line^38 that secretes the blood biomarker carcinoembryonic antigen (CEA) as a model system (FIG. 22). […] Following implantation, tumor engraftment was monitored by sampling serum every 3 days and analyzing for CEA by ELISA (FIG. 23b,c). […] Tumors permitted to grow further were readily detected by CEA analysis (day 13 and 16), representing a limit of detection of ˜330 mm3 (d ˜8.6 mm) (**P<0.01, Two way ANOVA, n=5). […] To determine the full diagnostic potential of multiplexed analysis, individual biomarkers were quantified by iCORE MS/MS.

In the case of “3,5-diethoxycarbonyl-1,4-dihydrocollidine [DDC]”, the “drop in liver collagen” value [1] is reported as roughly 30%.

With “EGVNDNEEGFFSAR [Glu-fib, prototypic urinary marker peptide]” the liver homing [2] was “undetectable” and the “urinary filtration / urinary fluorescence” value [2] was “efficiently filtered into urine”.

With “eGVndnee^+3G^+6FfsAr-X-K(FAM)GGf(Pip)KSGGGC-NW [Biomarker G10]” the “individual iCORE peak intensity (DDC over control) relative to pretreatment” value [3] was “did not deviate from initial pretreatment activities”.

In the case of “eG^+5VndneeGFfs^+4Ar-X-K(FAM)GGPVPLSLVMC-NW [Biomarker G5]”, the “individual iCORE peak intensity (DDC over control) relative to pretreatment” value [3] is reported as “significantly decreasing at week 3” and the “ROC area under the curve (AUC), fibrosing biomarkers” value ([3]; fibrosing window of 0-3 weeks, baseline AUC 0.5) is reported as 0.96.

In the case of “eG^+6Vndnee^+2GFfs^+1Ar-X-K(FAM)GGPWGIWGQGC-NW [Biomarker G4]”, the “individual iCORE peak intensity (DDC over control) relative to pretreatment” value [3] is reported as “strongly increased relative to pretreatment baselines”.

In the case of “e^+1GVndnee^+2G^+6FfsAr-X-K(FAM)GGfPRSGGGC-NW [Biomarker G9]”, the “individual iCORE peak intensity (DDC over control) relative to pretreatment” value [3] is reported as “did not deviate from initial pretreatment activities”.

With “e^+1G^+6Vndnee^+2GFfsAr-X-K(FAM)GGPVGLIGC-NW [Biomarker G3]” the “individual iCORE peak intensity (DDC over control) relative to pretreatment” value [3] was “strongly increased relative to pretreatment baselines”.

For “e^+2GVndneeG^+6Ffs^+1Ar-X-K(FAM)GGf(Pip)RSGGGC-NW [Biomarker G8]”, the “individual iCORE peak intensity (DDC over control) relative to pretreatment” value [3] was “did not deviate from initial pretreatment activities”.

With “e^+2G^+6Vndnee^+1GFfsAr-X-K(FAM)GGLVPRGSGC-NW [Biomarker G2]” the “individual iCORE peak intensity (DDC over control) relative to pretreatment” value [3] was “did not deviate from initial pretreatment activities”.

With “e^+3GVndneeG^+6FfsAr-X-K(FAM)GGPLGVRGKC-NW [Biomarker G7]” the “individual iCORE peak intensity (DDC over control) relative to pretreatment” value [3] was “elevating sharply at week 3 followed by a rapid reversal at week 7”.

For “e^+3G^+1Vndnee^+1GFfs^+4Ar-X-K(FAM)GGPLGLRSWC-NW [Biomarker G6]”, the “individual iCORE peak intensity (DDC over control) relative to pretreatment” value [3] was “significantly decreasing at week 3”.

In the case of “e^+3G^+6VndneeGFfsAr-X-K(FAM)GGPQGIWGQC-NW [Biomarker G1]”, the “ROC area under the curve (AUC), tumor biomarkers” value [4] is reported as 0.78, the “individual iCORE peak intensity (DDC over control) relative to pretreatment” value [3] is reported as “did not deviate from initial pretreatment activities” and the “ROC area under the curve (AUC), resolving biomarkers” value ([3]; resolving time frame of 7-11 weeks, baseline AUC 0.5) is reported as 0.73.

B1: serum CEA: blood biomarker carcinoembryonic antigen secreted by LS174T cells (protein, UniProt P06731 35-685, looked up)
Cell adhesion molecule CEACAM5: KLTIESTPFNVAEGKEVLLLVHNLPQHLFGYSWYKGERVDGNRQIIGYVIGTQQATPGPAYSGREIIYPNASLLIQNIIQNDTGFYTLHVIKSDLVNEEATGQFRVYPELPKPSISSNNSKPVEDKDAVAFTCEPETQDATYLWWVNNQSLPVSPRLQLSNGNRTLTLFNVTRNDTASYKCETQNPVSARRSDSVILNVLYGPDAPTISPLNTSYRSGENLNLSCHAASNPPAQYSWFVNGTFQQSTQELFIPNITVNNSGSYTCQAHNSDTGLNRTTVTTITVYAEPPKPFITSNNSNPVEDEDAVALTCEPEIQNTTYLWWVNNQSLPVSPRLQLSNDNRTLTLLSVTRNDVGPYECGIQNELSVDHSDPVILNVLYGPDDPTISPSYTYYRPGVNLSLSCHAASNPPAQYSWLIDGNIQQHTQELFISNITEKNSGLYTCQANNSASGHSRTTVKTITVSAELPKPSISSNNSKPVEDKDAVAFTCEPEAQNTTYLWWVNGQSLPVSPRLQLSNGNRTLTLFNVTRNDARAYVCGIQNSVSANRSDPVTLDVLYGPDTPIISPPDSSYLSGANLNLSCHSASNPSPQYSWRINGIPQQHTQVLFIAKITPNNNGTYACFVSNLATGRNNSIVKSITVSASGTSPGLSA
In the case of B1, the “ROC area under the curve (AUC), serum CEA” value ([5]; day 10) is reported as 0.61 and the “limit of detection (tumor burden) by CEA analysis” value ([5]; day 13 and 16) is reported as roughly 330 mm3.
